Measurements published in patent US20190030053A1, “COMPOSITION FOR INCREASING EXPRESSION OF PGC-1alpha” (BENEBIOSIS CO., LTD., priority 2016, published 2019).
Entries after “also recorded” stand apart in the source; their conditions may differ.

What was measured:
[1] = tested on: PGC-1α and related genes; assay: Gene expression in nerve cell test (Neuro-2a); assay type: cell-based, mouse; details: Neuro-2a cells, 0.1 mg/ml, 24 hours
Description: Neuroblasts (Neuro-2a, American Type Culture Collection, USA) were cultured in DMEM supplemented with 10% fetal bovine serum, […], and 0.1 mg/mL streptomycin in each well of 6-well plates at 37° C. in 5% CO2/95% atmospheric conditions. Neuro-2a cells correspond to the fast-growing mouse neuroblastoma cell line. After Neuro-2a cells were seeded at a density of 6000 cells per well, SL was added at a concentration of 0.1 mg/ml into the wells showing a confluency of about 5×10^6 cells/ml, followed by incubation for 24 hours under the same conditions. SL (3′-SL or 6′-SL) materials were the same as those described in Example 1. Unless otherwise stated, SL (3′-SL or 6′-SL) and the use concentrations thereof are understood to be the same as those described in Example 1. The negative control group was treated with physiological saline with 1/1000 of the volume of the medium. The cells treated with each sample were incubated at 37° C. for 24 hours, and then washed twice with cool saline solution, and RNA was extracted using TRIzol agent (Invitrogen). The expression patterns of PGC-1α and related genes were measured by using pre-designed primers and probes (Applied Biosystems; PGC-1α, Mm00447181_m1, GAPDH, and Mm99999915_q1) for the synthesized cDNA and analysis targets (Fndc5, PGC-1α, Erra, UCP1, BDNF, SOD2, and GPX1). […]

[2] = tested on: PGC-1α and related genes; assay: Gene expression by body parts in aging stimulation models; assay type: in vivo, mouse; details: SAM P1/Sku Slc mice, oral 0.1 mg/kg/day, 12 weeks, organs and skeletal muscles
Description: In order to investigate the gene expression changes by body parts by the treatment with SL (3′-SL & 6′-SL) compositions in aging stimulation models, 4-week-old male aging stimulation model mice (SAM P1/Sku Slc) were purchased from Central Lab Animal (Korea). Water was freely accessible, and a commercially available pellet feed (Dooyeul Biotech, Korea) was given for one week. […]
Sialyllactose or DW was orally administered daily. […] The dietary intake and body weight change were measured every 5 days. […]
The gene expression changes by administration of the SL (3′-SL & 6′-SL) compositions were quantitatively compared for eight main organs (heart, hippocampus, brain, spinal cord, lung, liver, spleen, and kidney), three skeletal muscles (soleus muscle, quadriceps femoris muscle, and gastrocnemius muscle), and the like. RNA was extracted by TRIzol agent (Invitrogen). cDNA was synthesized by using RNA, which has been extracted as above and quantified, and a reverse transcription system (Promega, USA). The expression patterns of PGC-1α and related genes were measured by using pre-designed primers and probes (Applied Biosystems; PGC-1α, Mm00447181_m1, GAPDH, and Mm99999915_q1) for the synthesized cDNA and analysis targets (Fndc5, PGC-1α, Erra, UCP1, SOD2, and GPX1). […]

[3] = tested on: mouse aortic smooth muscle cells (MASMs); assay: Intracellular H2O2 (ROS values, H2DCFDA) in MASMs of arteriosclerosis model mice; assay type: cell-based; details: MASMs from PGC-1α+/+ApoE−/− mice; SL added to culture liquid
Description: For cell-level tests, mouse aortic smooth muscle cells (MASMs) were isolated from the control group fed with a high-fat diet (Rodent Diet with 60 kcal % fat) without SL administration (Griendling et al., 1991), and the SL (3′-SL & 6′-SL) compositions were added to the culture liquid, followed by comparison. For intracellular H2O2 measurement (ROS values), the cells were cultured in 12-well culture plates immersed in 0.1% bovine calf serum. The intracellular ROS values were measured using H2DCFDA. For assay, the cells were cultured together with H2DCFDA in HBSS buffer for 30 minutes. The cells were trypsinized, washed, and lysed in HBSS. The fluorescence values were measured immediately by a CytoFluor plate reader (FIG. 19a).
In FIGS. 19a and 19b, MASMs were extracted from the model mouse (PGC-1α^+/+ApoE^−/−) control group, and the SL (3′-SL & 6′-SL) compositions were added to the culture liquid to conduct comparison.
FIGS. 19a and 19b show the measurement results of intercellular H2O2 (ROS values) (FIG. 19a) and the measurement results of mitochondrial superoxide production (FIG. 19b). MASMs were extracted from the model mice (PGC-1α^+/+ApoE^−/−), and the SL (3′-SL & 6′-SL) compositions were added to the culture liquid to conduct comparison.

Row | SMILES | expression levels of analysis targets (Fndc5, PGC-1α, Erra, UCP1, BDNF, SOD2, GPX1) vs negative control [1] | expression levels of analysis targets (Fndc5, PGC-1α, Erra, UCP1, SOD2, GPX1) vs control group [2] | intracellular H2O2 (ROS values) [3] | expression levels of analysis targets (Fndc5, PGC-1α, Erra, UCP1, SOD2, GPX1) vs control group ([2]; 0.1 mg/kg/day)
1 | CC(=O)N[C@H]1[C@H]([C@H](O)[C@H](O)CO)O[C@@](OC[C@H]2O[C@@H](O[C@H]3[C@H](O)[C@@H](O)[C@H](O)O[C@@H]3CO)[C@H](O)[C@@H](O)[C@H]2O)(C(=O)O)C[C@@H]1O [6′-SL, α-NeuNAc-(2→6)-β-D-Gal-(1→4)-D-Glc] | significant increases | significant increases | dropped the ROS values | –
2 | CC(=O)N[C@H]1[C@H]([C@H](O)[C@H](O)CO)O[C@@](O[C@H]2[C@@H](O)[C@@H](CO)O[C@@H](O[C@H]3[C@H](O)[C@@H](O)C(O)O[C@@H]3CO)[C@@H]2O)(C(=O)O)C[C@@H]1O (stereo partly drawn) [3′-SL, α-NeuNAc-(2→3)-β-D-Gal-(1→4)-D-Glc] | significant increases; also recorded: lower than that of 6′-SL | – | dropped the ROS values | significant increases; also recorded: relatively low compared with 6′-SL
